Data published in ChEMBL document CHEMBL1649564, “Anidulafungin treatment of candidal central nervous system infection in a murine model” (Antimicrob Agents Chemother, 2009).
Converted amounts (≈) assume the structure as drawn. The source made the active and inactive calls. The calls are words filed in the database; no cut-off is given here. Numbered stars: 1 amine (or outer) side, 2 acyl side, 3 side chain; on linkers, the order of the positions; unused ones are H or OH. Bridge positions count the residues as written; N and C are the ends. Square brackets hold non-standard residues; d marks the D form. Peptide text beside a SMILES is read from it. * marks the point of attachment. pTerphenylCO(4''-OnC5H11) = CCCCCOc1ccc(-c2ccc(-c3ccc(C(=O)*)cc3)cc2)cc1; Orn(4R-OH,5R-OH) = O=C([C@H](C[C@@H](O)[C@@H](O)N[*:3])N[*:1])[*:2]; hTyr(3S-OH,4S-OH) = N[C@H](C(=O)O)[C@H](O)[C@@H](O)c1ccc(O)cc1; Pro(3S-OH,4S-Me) = C[C@H]1CN[C@H](C(=O)O)[C@H]1O; Hyp = O=C(O)[C@@H]1C[C@@H](O)CN1

Tests used:
[1] = Plasma concentration in mouse infected with Candida albicans at 60 mg/kg, po after 24 hrs; format: ADME, organism-based; set-up: dose 60 mg/kg, route oral; conditions: read-out: MIC
[2] = Plasma concentration in mouse infected with Candida albicans at 60 mg/kg, po after 6 hrs; format: ADME, organism-based; set-up: dose 60 mg/kg, route oral; conditions: read-out: MIC
[3] = Plasma concentration in mouse infected with Candida albicans at 60 mg/kg, po after 1 hr; format: ADME, organism-based; set-up: dose 60 mg/kg, route oral; conditions: read-out: MIC
[4] = Plasma concentration in mouse infected with Candida albicans at 60 mg/kg, po after 12 hrs; format: ADME, organism-based; set-up: dose 60 mg/kg, route oral; conditions: read-out: MIC
[5] = tested on: Candida albicans; assay: Antifungal activity against Candida albicans infected in mouse assessed as fungal load in brain at 60 mg/kg, po after 10 days; format: functional
[6] = Plasma concentration in mouse infected with Candida albicans at 60 mg/kg, po after 3 hrs; format: ADME, organism-based; set-up: dose 60 mg/kg, route oral; conditions: read-out: MIC
[7] = tested on: Candida albicans; assay: Antifungal activity against Candida albicans infected in mouse assessed as decrease in fungus-induced mortality rate at 60 mg/kg, po; format: functional, organism-based; set-up: dose 60 mg/kg
[8] = tested on: Candida albicans; assay: Antifungal activity against Candida albicans; format: functional
[9] = tested on: Candida albicans; assay: Antifungal activity against Candida albicans infected in mouse assessed as decrease in fungus-induced mortality rate at 10 mg/kg, ip; format: functional, organism-based; set-up: dose 10 mg/kg
[10] = Plasma concentration in mouse infected with Candida albicans at 5 mg/kg, ip after 1 hr; format: ADME, organism-based; set-up: dose 5 mg/kg, route intraperitoneal; conditions: read-out: MIC
[11] = tested on: Candida albicans; assay: Antifungal activity against Candida albicans infected in mouse assessed as fungal load in brain at 10 mg/kg, ip after 10 days; format: functional; conditions: route intraperitoneal
[12] = Plasma concentration in mouse infected with Candida albicans at 10 mg/kg, ip after 6 hrs; format: ADME, organism-based; set-up: dose 10 mg/kg, route intraperitoneal; conditions: read-out: MIC
[13] = Plasma concentration in mouse infected with Candida albicans at 5 mg/kg, ip after 3 hrs; format: ADME, organism-based; set-up: dose 5 mg/kg, route intraperitoneal; conditions: read-out: MIC
[14] = Plasma concentration in mouse infected with Candida albicans at 5 mg/kg, ip after 12 hrs; format: ADME, organism-based; set-up: dose 5 mg/kg, route intraperitoneal; conditions: read-out: MIC
[15] = Plasma concentration in mouse infected with Candida albicans at 10 mg/kg, ip after 1 hr; format: ADME, organism-based; set-up: dose 10 mg/kg, route intraperitoneal; conditions: read-out: MIC
[16] = tested on: Candida albicans; assay: Antifungal activity against Candida albicans infected in mouse assessed as decrease in fungal load in brain at 5 mg/kg, ip after 10 days; format: functional, organism-based; set-up: dose 5 mg/kg
[17] = Plasma concentration in mouse infected with Candida albicans at 10 mg/kg, ip after 24 hrs; format: ADME, organism-based; set-up: dose 10 mg/kg, route intraperitoneal; conditions: read-out: MIC
[18] = Plasma concentration in mouse infected with Candida albicans at 5 mg/kg, ip after 24 hrs; format: ADME, organism-based; set-up: dose 5 mg/kg, route intraperitoneal; conditions: read-out: MIC
[19] = tested on: Candida albicans; assay: Antifungal activity against Candida albicans infected in mouse assessed as decrease in fungus-induced mortality rate at 5 mg/kg, ip; format: functional, organism-based; set-up: dose 5 mg/kg
[20] = Plasma concentration in mouse infected with Candida albicans at 10 mg/kg, ip after 3 hrs; format: ADME, organism-based; set-up: dose 10 mg/kg, route intraperitoneal; conditions: read-out: MIC
[21] = Plasma concentration in mouse infected with Candida albicans at 5 mg/kg, ip after 6 hrs; format: ADME, organism-based; set-up: dose 5 mg/kg, route intraperitoneal; conditions: read-out: MIC
[22] = Plasma concentration in mouse infected with Candida albicans at 10 mg/kg, ip after 12 hrs; format: ADME, organism-based; set-up: dose 10 mg/kg, route intraperitoneal; conditions: read-out: MIC

C[C@@H](c1ncncc1F)[C@](O)(Cn1cncn1)c1ccc(F)cc1F [VORICONAZOLE]
concentration at 24 h [1]: 160 ng/mL
concentration at 6 h [2]: 9470 ng/mL
concentration at 1 h [3]: 7410 ng/mL
concentration at 12 h [4]: 5370 ng/mL
log10CFU/g [5]: 3.23
concentration at 3 h [6]: 7280 ng/mL
inhibition [7]: Active
MIC [8]: 0.06 µg/mL (≈ 0.172 µM)
Activity [9]: Active

CCCCCOc1ccc(-c2ccc(-c3ccc(C(=O)N[C@H]4C[C@@H](O)[C@@H](O)NC(=O)[C@@H]5[C@@H](O)[C@@H](C)CN5C(=O)[C@H]([C@@H](C)O)NC(=O)[C@H]([C@H](O)[C@@H](O)c5ccc(O)cc5)NC(=O)[C@@H]5C[C@@H](O)CN5C(=O)[C@H]([C@@H](C)O)NC4=O)cc3)cc2)cc1 [ANIDULAFUNGIN] ({pTerphenylCO(4''-OnC5H11)}-[Orn(4R-OH,5R-OH)]T[Hyp][hTyr(3S-OH,4S-OH)]T[Pro(3S-OH,4S-Me)]; lactam 1-C)
concentration at 1 h [10]: 2500 ng/mL
log10CFU/g [11]: 2.65
concentration at 6 h [12]: 3180 ng/mL
concentration at 3 h [13]: 1730 ng/mL
concentration at 12 h [14]: 1180 ng/mL
concentration at 1 h [15]: 4020 ng/mL
inhibition [16]: inactive
concentration at 24 h [17]: 1390 ng/mL
concentration at 24 h [18]: 180 ng/mL
inhibition [19]: inactive
concentration at 3 h [20]: 4910 ng/mL
MIC [8]: 0.03 µg/mL (≈ 0.0263 µM)
concentration at 6 h [21]: 1660 ng/mL
concentration at 12 h [22]: 2730 ng/mL
